The text below walks through data of patent US4524068A, “Cyclodextrin inclusion complex of piperonyl butoxide” (priority 1982, dated 1985).

Converted amounts (≈) assume the structure as drawn.

Series [1] deals with Drosophila melanogaster Meigen (vinegar midge). Put plainly: 24 hours' mortality of tetrametrin on midges pre-fed with piperonyl butoxide or its complex (Example 8). The series is classed as in vivo. As to conditions: pre-fed with synergist. As to the method: The emulsion and suspension also contain 5% of sucrose.
Next day the 24 hours' mortality is determined.

Another series can be described thus: physchem. The following applies: water.
For series [2] the following is noted: cited from earlier work.
For series [3], the system named is Sitophilus granarius. As to the kind of experiment: 24 hours' mortality of tetrametrin and cinerin with synergist (Example 10). As to conditions: for mortality at 10 mg/disk: Sitophilus granarius, 24 h, read-out: 24 hours' mortality, Paralitical and killed insects. Here is the method: (§1) As insecticide tetrametrin and cinerin I are used. The insecticidal effect is tested on 2-4 weeks' old Sitophilus granarius (Corn-Weevil) imago.
(§2) Piperonyl butoxide and the complex of piperonyl butoxide and cyclodextrin are applied as described in Example 9. The ratio of pyrethroide and synergistic agent amounts to 1:4 in all cases. The efficiency of insecticidal effect is proportional to the value of the 24 hours' mortality (killing effect).

Series [4] relates to Sitophilus granarius. Put plainly: Knock-down effect of tetrametrin and cinerin I with synergist (Example 10). The series is classed as in vivo, Sitophilus granarius (Corn-Weevil). The following applies: pyrethroide:synergistic agent 1:4. As to the method:
as §1, §2

As for `CCCCOCCOCCOCc1cc2c(cc1CCC)OCO2` [piperonyl butoxide, 5-{[2-(2-butoxy-ethoxy)-ethoxy]-methyl}-6-propyl-1,3-benzodioxole], the “Mortality (24 hours mortality; killing effect)” value in series [1] (tetrametrin dose 0.078 mg/disk) came out at 0%; in series [1] (tetrametrin dose 0.156 mg/disk), 8%; in series [1] (tetrametrin dose 0.313 mg/disk), 34%; in series [1] (tetrametrin dose 0.625 mg/disk), 48%; in series [1] (tetrametrin dose 1.250 mg/disk) it was 100%; in series [1] (tetrametrin dose 5.000 mg/disk), 100%. In “physchem”, the concentration in solution (solubility at 1 h) came to 66 µg/mL (≈ 195 µM). Further, in series [2] (organic solvents), the “solubility in organic solvents” value is recorded as “soluble in organic solvents”. Moreover, the solubility in water entry in series [2] (water) is given as “substantially insoluble in water”.
As to `C/C=C\CC1=C(C)[C@@H](OC(=O)[C@@H]2[C@@H](C=C(C)C)C2(C)C)CC1=O` [cinerin], in the series with Sitophilus granarius [3], the mortality at 10 mg/disk stood at 31%. In the series on Sitophilus granarius [3] (pyrethroide dose 1.250 mg/disk, pyrethroid:synergist 1:4), the “24 hours' mortality; Paralitical and killed insects” value was found to be 0%. For the same compound, the Knock-down effect with Sitophilus granarius [4] (90 minutes) is 6; in the series on Sitophilus granarius [4] (170 minutes) it was 9; with Sitophilus granarius [4] (210 minutes), 8; with Sitophilus granarius [4] (300 minutes), 2.
Consider `CC(C)=CC1C(C(=O)OCN2C(=O)C3=C(CCCC3)C2=O)C1(C)C` (centres unmarked) [tetrametrin], for which the mortality at 10 mg/disk with Sitophilus granarius [3] came out at 41%. The Knock-down effect was 0 in the series with Sitophilus granarius [4] (90 minutes), 9 with Sitophilus granarius [4] (170 minutes), 9 in the series on Sitophilus granarius [4] (210 minutes) and 6 in the series with Sitophilus granarius [4] (300 minutes).
